Like-named read-outs stand apart in the source and are kept apart here.
Columns and labels:
[1] = system: HIV-1 strain RoJo; assay: PBMC time of addition assay (RT activity in supernatant at 6 days); type: cell-based; conditions: for fold regain of potency (decrease in IC50): after the loss at 2 h; for IC50: Human immunodeficiency virus 1, PBMC
Description: (§1) Human peripheral blood mononuclear cells (PBMCs) from a minimum of 2 donors, that have been blasted with PHA and IL-2, were counted, viability determined by Trypan Blue dye exclusion and mixed in equal ratios. Pooled donors were used to minimize the variability observed between individual donors which results from quantitative and qualitative differences in HIV infection and overall response to the PHA and IL-2 of primary lymphocyte populations. The cells were resuspended at 1×10^6 cells /mL in RPMI 1640 without phenol red supplemented with 15% Fetal Bovine Serum (heat inactivated), 2 mM L-glutamine, 100 U/mL penicillin, 100 μg/mL streptomycin, 10 μg/mL gentamycin and IL-2 (20 U/mL, R&D Systems, Minneapolis, Minn.). Fifty microliters of cells were then distributed to the inner 60 wells of a 96 well round bottom microtiter culture plate in a standard format developed by the Infectious Disease Research department of Southern Research Institute. Each plate contains cell control wells (cells only), virus control wells (cells plus virus), and experimental wells (drug plus cells plus virus). Alternatively, cells were cultured in T25 cm^2 or T75 cm^2 tissue culture flasks at a starting density of 1×10^6 cells per ml. Serially diluted compounds were added to the microtiter plate or tissue culture flask followed by the appropriate pre-titered strain of HIV-1. For virus replication inhibition experiments the HIV-1 strain RoJo was used. This is a low passage presumable subtype B pediatric isolate with a syncytium inducing (SI) phenotype in MT-2 cells isolated by Southern Research Institute personnel. All samples were assayed in triplicate where possible with an accompanying determination of compound toxicity. The final volume per well in the microtiter plates was 200 μL. The final volume in the tissue culture flask varied depending upon experimental design and flask size. Assays were incubated for 6 days in a humidified atmosphere at 37° C., 5% CO^2, after which supernatants were collected, for analysis of RT activity and cell viability by MTS dye reduction. Culture were also examined microscopically, any abnormalities noted, and in the case of tissue culture flasks cell counts and viability determined by Trypan Blue Dye exclusion.
(§2) Time of addition assays were performed with PBMCs in two ways. For both assays, PBMCs were isolated and cultured under the conditions as described above. Time of addition assays were carried out in either a tissue culture flask format (T-75 cm^2) or in microtiter wells. In both cases due to the lack of plastic adherence and heterogeneity of the PBMC population for susceptibility to infection, it was not possible to use complete removal of virus following a timed adsorption to synchronize the infection and limit the assay to a single round of infection. Therefore, serial washing by partial removal of the media was used to reduce the concentration of virus and compound (if required) in the assay. Compound addition in relationship to antiviral activity was either assessed over a short addition interval immediately before or after virus addition or for up to 72 h post infection. For all assays virus replication was assessed at 6 days of culture by determining RT expression in cell-free supernatants. In the tissue culture flask format cells were counted and Trypan Blue Dye exclusion used to monitor compound cytotoxicity. Cell viability in the 96 well microtiter plate format was determined by MTS dye reduction. AZT was used as a positive control.
Reverse transcriptase activity was measured in cell-free supernatants. Tritiated thymidine triphosphate (NEN) (TTP) was resuspended in distilled H2O at 5 Ci/mL. Poly rA and oligo dT were prepared as a stock solution which was kept at −20° C. The RT reaction buffer was prepared fresh on a daily basis and consists of 125 μL 1.0 M EGTA, 125 μL dH2O, 110 μL 10% SDS, 50 μL 1.0 M Tris (pH 7.4), 50 μL 1.0 M DTT, and 40 μL 1.0 M MgCl2. […]

[2] = system: HIV-1 (96USHIPS7 strain); assay: HIV attachment assay in PBMCs (cell-associated p24); type: cell-based; conditions: for Comments: effect on HIV attachment / % Control / pg p24: 15 μM; for Comments: effect on HIV attachment: pretreatment 0, 2, 4, 24 h; for virus binding relative to control: pretreated for 24 h
Experimental: ELISA kits were purchased from Coulter Electronics. The assay was performed according to the manufacturer's instructions. Control curves were generated in each assay to accurately quantitate the amount of p24 antigen in each sample. For experiments using cell lysates. Fifty thousand (5×10^4) viable cells were lysed in Coulter ELISA buffer and subjected to 1 round of freeze/thawed to liberate trapped p24 and p24 detected per manufacturers instructions. HIV capsid protein (p24) was quantitated spectrophotometrically at 450 nm using a Molecular Devices Vmax plate reader using a standard curve. Final concentrations were calculated from the optical density values using the Molecular Devices Soft Max software package.
The attachment assay with PBMCs was performed as follows. Briefly, 1×10^6 PHA/IL-2 PBMCs were incubated for 0, 2, 4 and 24 hours with IMG compounds and cannabidiol in polypropylene tubes. A pre-titered amount of HIV-1 (96USHIPS7 strain, obtained from the AIDS Research and Reference Reagent Program ) was added in the presence of compound and incubated for 3 h at 37° C. After incubation the cultures were washed 3 times (400×g, 10 min, 4° C.) with media (1:25,000 dilution of input p24), the cell pellets lysed with p24 lysing buffer (Coulter) and p24 content determined by ELISA.
PBMCs pretreated with compounds for 0, 2, 4, and 24 were incubated with cell-free HIV-1 for 3 h and the excess unbound HIV removed. The assessed the amount of HIV bound to the cell was then assessed by measuring cell-associated p24 content of total cell lysates.

[3] = system: peripheral blood mononuclear cells (PBMCs); assay: PBMC cell viability in time of addition assay (MTS / Trypan Blue); type: cell-based, Human; conditions: read-out: TC50 (the source's name)
Description: as §1, §2
(§3) At assay termination the assay plates were stained with the soluble tetrazolium-based dye MTS (CellTiter96® Reagent Promega) to determine cell viability and quantify compound toxicity. MTS is metabolized by the mitochondria enzymes of metabolically active cells to a soluble formazan product, allowing the rapid quantitative analysis cell viability and compound cytotoxicity. […] At termination of the assay 20 μL of MTS reagent was added per well and incubated for 4 h at 37° C. […]

[4] = as above; type: cell-based, Human; conditions: human, read-out: TC50
Description: as §1, §2, §3

[5] = addition prior to infection, pre-treatment 0 h
[6] = addition prior to infection, pre-treatment 2 h
[7] = addition prior to infection, pre-treatment 4 h
[8] = addition prior to infection, pre-treatment 24 h

Structure (SMILES) | fold increase in IC50 ([1]; 24 h pretreatment) | Comments: effect on HIV attachment [2] | % Control ([2]; time 0 h) [%] | pg p24 ([2]; time 0 h) [pg] | % Control ([2]; time 2 h) [%] | pg p24 ([2]; time 2 h) [pg] | % Control ([2]; time 4 h) [%] | pg p24 ([2]; time 4 h) [pg] | % Control ([2]; time 24 h) [%] | pg p24 ([2]; time 24 h) [pg] | CC50 ([3]; treatment 6 h post) [µM] | CC50 ([3]; treatment at infection) [µM] | CC50 at 6 days ([4]; treatment −4 h pre) [µM] | IC50 ([1]; 4 h, treatment −4 h pre) [µM] | IC50 ([1]; 6 h, treatment 6 h post) [µM] | IC50 [1, 5] [µM] | IC50 [1, 6] [µM] | IC50 [1, 7] [µM] | IC50 [1, 8] [µM] | IC50 ([1]; treatment at infection) [µM] | further results
C=C(C)[C@@H]1CCC(C)=C[C@H]1c1c(O)cc(CCCCC)cc1O [Cannabidiol, reference compound] | fold at 4 h then a 17- | No significant effect | 82.6 | 317 | 74.5 | 286 | 90.9 | 349 | 114.3 | 439 | > 100 | > 100 | > 100 | – | – | – | – | – | – | – | fold loss of activity (potency) ([1]; 2 h pretreatment, listed as cannabidiol): approximately 10 fold; fold regain of potency (decrease in IC50) ([1]; 4 h pretreatment): activity at 2 , regain 3.3-fold; fold regain of potency (decrease in IC50) ([1]; 4 h pretreatment, listed as cannabidiol): 3.3 fold; fold increase in IC50 ([1]; 24 h pretreatment, listed as cannabidiol): 17 fold; IC50 ([1]; addition prior to infection, pre-treatment 0 h, read-out: IC50): 0.58 µM; IC50 ([1]; addition prior to infection, pre-treatment 2 h, read-out: IC50): 5 µM; IC50 ([1]; addition prior to infection, pre-treatment 4 h, read-out: IC50): 1.5 µM; virus binding relative to control [2]: return to control levels of virus binding
COc1cc(C(C)(C)CCCC(C)C)cc(OC)c1OC [IMG507, 1-(1,1,5-Trimethylhexyl)-3,4,5-trimethoxybenzene] | approximately 2 fold | no significant effect on virus attachment | 83.3 | 320 | 91.4 | 351 | 76.3 | 293 | 95.8 | 368 | > 100 | – | – | 39.5 | 46.1 | 6.9 | 6.1 | 5.3 | 10.8 | 67 | CC50 ([3]; treatment −4 h pre): > 100 µM; CC50 at 6 days ([4]; treatment at infection): > 100 µM
Cc1ccc2c(c1)-c1c(O)cc(C(C)(C)CCCC(C)C)cc1OC2(C)C [IMG511, 3-Norpentyl-3-(1,1,5-trimethylhexyl)cannabinol] | 5-fold increase in IC50 | No Significant effect | 75.5 | 290 | 85.4 | 328 | 76.6 | 294 | 91.7 | 352 | > 100 | > 100 | > 100 | 15.2 | 9.3 | 6.6 | 9.4 | 11.7 | 33.2 | 16.9 | –
CC(C)=CCCC1(C)CCc2c(O)cc(C(C)(C)CCCC(C)C)cc2O1 (stereo not shown) [IMG508, 3,4-Dihydro-2-methyl-2-(4-methyl-3-pentenyl)-7-(1,1,5-trimethylhexyl)-2H-1-benzopyran-5-ol] | – | No significant effect | 81.3 | 312 | 85.4 | 328 | 72.7 | 279 | 111.5 | 428 | > 100 | > 100 | > 100 | 6.2 | 22.5 | 14.2 | 10.4 | 4.1 | 11.9 | 15.7 | fold decrease in IC50 ([1]; 4 h pretreatment): 4-fold decrease in IC50; virus binding relative to control [2]: return to control levels of virus binding
CC1=CCC2C(C1)c1c(O)cc(C(C)(C)CCCC(C)C)cc1OC2(C)C (stereo not shown) [IMG509, 3-Norpentyl-3-(1,1,5-trimethylhexyl)-Δ8-tetrahydrocannabinol] | – | – | 83.6 | 321 | 81.8 | 314 | 61.2 | 235 | 77.3 | 297 | > 100 | > 100 | > 100 | 19.6 | 10 | 9.3 | 11 | 12.6 | 6.6 | 17.5 | fold decrease in IC50 ([1]; 24 h pretreatment): approximately 2 fold; inhibition of HIV cell-association ([2]; 4 h preincubation): significantly inhibit HIV cell-association
Cc1c(O)cc(C(C)(C)CCCC(C)C)cc1O [IMG510, 2-Methyl-5-(1,1,5-trimethylhexyl)resorcinol] | – | – | 91.1 | 350 | 85.7 | 329 | 71.4 | 274 | 88.3 | 339 | > 100 | > 100 | > 100 | 17.7 | 14.4 | 13.4 | 1.4 | 11.5 | 9.5 | 16.1 | fold decrease in IC50 ([1]; 2 h pretreatment): 9.5-fold decrease in

Reference: patent US20030232101A1, “Topical formulations of resorcinols and cannibinoids and methods of use” (Immugen Pharmaceuticals, Inc., priority 2002, published 2003)
